Earlier results, collected in PubChem BioAssay AID1259409 (Chemical Carcinogenesis Research Information System (CCRIS), 2018).

Tested on: rodent chemically induced tumor inhibition, incidence and multiplicity
Experiment: CCRIS tumor inhibitor studies

COc1cc(/C=C/C(=O)CC(=O)/C=C/c2ccc(O)c(OC)c2)ccc1O
tumour outcome (control, treated, inhibition, significance) (Carcinogen: BENZO[A]PYRENE, 50-32-8, Dose [Inhibitor]: 0, 10 UMOL IN ACETONE APPLIED 120, 60 AND 5 MIN PRIOR TO CARCINOGEN DOSE (STUDY DURATION: 24 WK), Route [Inhibitor]: DERMAL, Species: MOUSE, Strain/Sex: CD-1/FEMALE, Target Tissue: Type of Lesion: SKIN: TUMORS, Dose [Carcinogen]: 200 NMOL ONCE, Promoter: 12-O-TETRADECANOYLPHORBOL-13-ACETATE, 16561-29-8): 96%, 77%, 20%, not calculated
tumour outcome (control, treated, inhibition, significance) (Carcinogen: METHYL(ACETOXYMETHYL)NITROSAMINE, 56856-83-8, Dose [Inhibitor]: 0, 5% IN DIET FOR DURATION OF STUDY BEGINNING 2 WK PRIOR TO CARCINOGEN TREATMENT (STUDY DURATION: 13 MO), Route [Inhibitor]: ORAL, Species: HAMSTER, Strain/Sex: SYRIAN/FEMALE, Target Tissue: Type of Lesion: ORAL: CAVITY, Dose [Carcinogen]: 2 MG/KG BW APPLIED TO RIGHT CHEEK POUCH 2/MO FOR 6 MO, Promoter: NONE USED): 14/15 (93%), 3/16 (19%), 80%, p<0.001
tumour outcome (control, treated, inhibition, significance) (Carcinogen: N-ETHYL-N'-NITRO-N-NITROSOGUANDINDE, 4245-77-6, Dose [Inhibitor]: 0, 1% COMMERCIAL GRADE CURCUMIN IN DIET FOR 16 WK BEGINNING 1 WK POST CARCINOGEN TREATMENT (STUDY DURATION: 20 WK), Route [Inhibitor]: ORAL, Species: MOUSE, Strain/Sex: C57BL/MALE, Target Tissue: Type of Lesion: DUODENUM: ADENOMA, Dose [Carcinogen]: 120 MG/L IN DRINKING WATER FOR 4 WK, Promoter: NONE USED): 45%, 28%, 38%, not significant
tumour outcome (control, treated, inhibition, significance) (Carcinogen: N-ETHYL-N'-NITRO-N-NITROSOGUANIDINE, 4245-77-6, Dose [Inhibitor]: 0, 0.5% COMMERCIAL GRADE CURCUMIN IN DIET FOR 16 WK BEGINNING 1 WK POST CARCINOGEN TREATMENT (STUDY DURATION: 20 WK), Route [Inhibitor]: ORAL, Species: MOUSE, Strain/Sex: C57BL/MALE, Target Tissue: Type of Lesion: DUODENUM: ADENOCARCINOMA, Dose [Carcinogen]: 120 MG/L IN DRINKING WATER FOR 4 WK, Promoter: NONE USED): 6%, 4%, 33%, not significant
tumour outcome (control, treated, inhibition, significance) (Carcinogen: N-ETHYL-N'-NITRO-N-NITROSOGUANIDINE, 4245-77-6, Dose [Inhibitor]: 0, 0.5% COMMERCIAL GRADE CURCUMIN IN DIET FOR 16 WK BEGINNING 1 WK POST CARCINOGEN TREATMENT (STUDY DURATION: 20 WK), Route [Inhibitor]: ORAL, Species: MOUSE, Strain/Sex: C57BL/MALE, Target Tissue: Type of Lesion: DUODENUM: ADENOMA, Dose [Carcinogen]: 120 MG/L IN DRINKING WATER FOR 4 WK, Promoter: NONE USED): 45%, 20%, 56%, not significant
tumour outcome (control, treated, inhibition, significance) (Carcinogen: N-ETHYL-N'-NITRO-N-NITROSOGUANIDINE, 4245-77-6, Dose [Inhibitor]: 0, 1% COMMERCIAL GRADE CURCUMIN IN DIET FOR 16 WK BEGINNING 1 WK POST CARCINOGEN TREATMENT (STUDY DURATION: 20 WK), Route [Inhibitor]: ORAL, Species: MOUSE, Strain/Sex: C57BL/MALE, Target Tissue: Type of Lesion: DUODENUM: ADENOCARCINOMA, Dose [Carcinogen]: 120 MG/L IN DRINKING WATER FOR 4 WK, Promoter: NONE USED): 6%, 4%, 33%, not significant
tumour outcome (control, treated, inhibition, significance) (Carcinogen: N-ETHYL-N'-NITRO-N-NITROSOGUANIDINE, 4245-77-6, Dose [Inhibitor]: 0, 2% COMMERCIAL GRADE CURCUMIN IN DIET FOR 16 WK BEGINNING 1 WK POST CARCINOGEN TREATMENT (STUDY DURATION: 20 WK), Route [Inhibitor]: ORAL, Species: MOUSE, Strain/Sex: C57BL/MALE, Target Tissue: Type of Lesion: DUODENUM: ADENOCARCINOMA, Dose [Carcinogen]: 120 MG/L IN DRINKING WATER FOR 4 WK, Promoter: NONE USED): 6%, 5%, 17%, not significant
tumour outcome (control, treated, inhibition, significance) (Carcinogen: N-ETHYL-N'-NITRO-N-NITROSOGUANIDINE, 4245-77-6, Dose [Inhibitor]: 0, 2% COMMERCIAL GRADE CURCUMIN IN DIET FOR 16 WK BEGINNING 1 WK POST CARCINOGEN TREATMENT (STUDY DURATION: 20 WK), Route [Inhibitor]: ORAL, Species: MOUSE, Strain/Sex: C57BL/MALE, Target Tissue: Type of Lesion: DUODENUM: ADENOMA, Dose [Carcinogen]: 120 MG/L IN DRINKING WATER FOR 4 WK, Promoter: NONE USED): 45%, 27%, 40%, not significant
tumour outcome (control, treated, inhibition, significance) (Carcinogen: N-METHYL-N'-NITRO-N-NITROSOGUANIDINE, 70-25-7, Route [Inhibitor]: 0, 0.05% IN DIET FOR 55 WK BEGINNING IMMEDIATELY POST-CARCINOGEN TREATMENT, THEN SWITCHED TO BASAL DIET FOR 4 WK (STUDY, Species: RAT, Strain/Sex: WISTAR/MALE, Target Tissue: Type of Lesion: GLANDULAR STOMACH: ADENOCARCINOMA, Dose [Carcinogen]: 100 PPM IN DRINKING WATER FOR 8 WK, Promoter: SODIUM CHLORIDE, 7647-14-5): 1/29 (3%), 2/29 (7%), -133%, not significant
tumour outcome (control, treated, inhibition, significance) (Carcinogen: N-METHYL-N'-NITRO-N-NITROSOGUANIDINE, 70-25-7, Route [Inhibitor]: 0, 0.2% IN DIET FOR 55 WK BEGINNING IMMEDIATELY POST-CARCINOGEN TREATMENT, THEN SWITCHED TO BASAL DIET FOR 4 WK (STUDY D, Species: RAT, Strain/Sex: WISTAR/MALE, Target Tissue: Type of Lesion: GLANDULAR STOMACH: ADENOCARCINOMA, Dose [Carcinogen]: 100 PPM IN DRINKING WATER FOR 8 WK, Promoter: SODIUM CHLORIDE, 7647-14-5): 1/29 (3%), 2/30 (7%), -133%, not significant
tumour outcome (control, treated, inhibition, significance) (Carcinogen: NONE USED, Dose [Inhibitor]: 0, 2% IN DIET FROM 12 MO OF AGE (STUDY DURATION: 15 MO), Route [Inhibitor]: ORAL, Species: MOUSE, Strain/Sex: C3H/FEMALE, Target Tissue: Type of Lesion: MAMMARY GLAND: TUMOR, Promoter: NONE USED): 12/20 (60%), 8/18 (44%), 27%, not calculated
tumour outcome (control, treated, inhibition, significance) (Carcinogen: NONE USED, Dose [Inhibitor]: 0, 5% IN DIET FROM 6 MO OF AGE (STUDY DURATION: 15 MO), Route [Inhibitor]: ORAL, Species: MOUSE, Strain/Sex: C3H/FEMALE, Target Tissue: Type of Lesion: MAMMARY GLAND: TUMOR, Promoter: NONE USED): 12/20 (60%), 0/15 (0%), 100%, not calculated
tumour outcome (control, treated, inhibition, significance) (Carcinogen: NONE USED, Dose [Inhibitor]: 0, 5% IN DIET FROM 8 MO OF AGE (STUDY DURATION: 15 MO), Route [Inhibitor]: ORAL, Species: MOUSE, Strain/Sex: C3H/FEMALE, Target Tissue: Type of Lesion: MAMMARY GLAND: TUMOR, Promoter: NONE USED): 12/20 (60%), 7/21 (33%), 45%, not calculated
tumour outcome (control, treated, inhibition, significance) (Carcinogen: NONE USED, Dose [Inhibitor]: O, 5% IN DIET FROM 12 MO OF AGE (STUDY DURATION: 15 MO), Route [Inhibitor]: ORAL, Species: MOUSE, Strain/Sex: C3H/FEMALE, Target Tissue: Type of Lesion: MAMMARY GLAND: TUMOR, Promoter: NONE USED): 12/20 (60%), 5/17 (29%), 52%, not calculated
